# Assays:
# XBP-1s expression [1] = test: Inhibition of XBP-1s expression in LPS-stimulated wild-type mouse B cells; format: cell-based; conditions: immunoblot
# [2] = biological target: recombinant human IRE-1 (RNase activity) (Homo sapiens, UniProt O75460); test: In vitro IRE-1 RNase FRET-suppression assay; format: biochemical; conditions: up to 20 µM
# [3] = Chemical stability in FRET-suppression assay buffer; conditions: rt, over 12 hours, LCMS
# Jeko cells = test: PARP cleavage; format: cell-based, human; conditions: 50 µM, 72 h, immunoblot
# Mino cells = test: PARP cleavage; format: cell-based, human; conditions: 50 µM, 72 h, immunoblot
# XBP-1s expression [4] = test: Inhibition of XBP-1s expression in Mino cells; format: cell-based, human; conditions: 20 µM, 24 h, immunoblot
# XBP-1s expression [5] = test: Inhibition of XBP-1s expression in Jeko cells; format: cell-based, human; conditions: 20 µM, 24 h, immunoblot
# Chain of recombinant human IRE-1 (RNase activity) (O75460 547-977): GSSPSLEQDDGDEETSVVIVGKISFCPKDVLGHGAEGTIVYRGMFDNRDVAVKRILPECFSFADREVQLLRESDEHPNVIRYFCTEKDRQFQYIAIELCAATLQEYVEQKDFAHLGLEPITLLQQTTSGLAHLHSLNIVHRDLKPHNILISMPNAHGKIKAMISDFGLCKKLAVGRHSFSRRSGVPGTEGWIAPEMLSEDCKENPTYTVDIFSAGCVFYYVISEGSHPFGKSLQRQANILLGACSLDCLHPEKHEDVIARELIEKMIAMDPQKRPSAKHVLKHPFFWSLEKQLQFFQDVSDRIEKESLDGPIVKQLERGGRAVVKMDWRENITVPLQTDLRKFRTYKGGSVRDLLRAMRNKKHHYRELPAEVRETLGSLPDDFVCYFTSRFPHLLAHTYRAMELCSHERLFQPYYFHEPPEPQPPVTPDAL
compound,measurement,setting,value
O=Cc1c(O)ccc2ccccc12 [Compound 2],inhibition of XBP-1s expression,XBP-1s expression [1]; 50 µM,strong inhibition
Cc1cc(=O)oc2c(C=O)c(O)ccc12 [Compound 5],inhibition of XBP-1s expression,"XBP-1s expression [1]; 20 µM, 24 h",strong inhibition
"NS(=O)(=O)c1cccs1 [Compound 8, reference compound]",IRE-1 RNase inhibition (in words),[2],no appreciable inhibition
"C=CCOC(=O)N1CCc2c(c(=O)oc3c(C4OCCCO4)c(O)ccc23)C1 [Compound 24, Allyl 7-(1,3-dioxan-2-yl)-8-hydroxy-5-oxo-4,5-dihydro-1H-chromeno[3,4-c]pyridine-3(2H)-carboxylate]","decomposition of the 1,3-dioxane moiety",[3],no significant decomposition
"C=CCOC(=O)N1CCc2c(c(=O)oc3c(C=O)c(OCc4ccccc4)ccc23)C1 [Compound 27, Allyl 7-formyl-8-benzyloxy-5-oxo-4,5-dihydro-1H-chromeno[3,4-c]pyridine-3(2H)-carboxylate]",IRE-1 RNase inhibition (in words),[2],complete loss of potency below 20 µM
"CN1CCc2c(c(=O)oc3c(C=O)c(O)ccc23)C1 [Compound 30, 8-Hydroxy-3-methyl-5-oxo-2,3,4,5-tetrahydro-1H-chromeno[3,4-c]pyridine-7-carbaldehyde]",PARP cleavage,Jeko cells,more strongly than either 21b or 5
same,PARP cleavage,Mino cells,more strongly than either 21b or 5
"C=C(C)CN1CCc2c(c(=O)oc3c(C=O)c(O)ccc23)C1 [Compound 33, 8-Hydroxy-3-(2-methylallyl)-5-oxo-2,3,4,5-tetrahydro-1H-chromeno[3,4-c]pyridine-7-carbaldehyde]",suppression of XBP-1s expression,XBP-1s expression [4],significant activity
same,suppression of XBP-1s expression,XBP-1s expression [5],significant activity

# Reference: publication PMC4032190 (Journal of medicinal chemistry, 2014)
